By IC50 is commonly meant the point on the concentration scale where inhibition reaches its midpoint.

This passage reports IC50 results from ChEMBL document CHEMBL1641537, “Chalcone-based inhibitors against hypoxia-inducible factor 1--structure activity relationship studies” (Bioorg Med Chem Lett, 2011).

Structures are written as SMILES.

This test in a line: Inhibition of cobalt chloride-induced HIF-1 activation expressed in mouse NIH3T3 cells after 8 hrs by luciferase reporter gene assay. The test is classed as cell-based. As to conditions: NIH3T3, 8 h. A general note: In a reporter assay the amount or activity of a reporter protein is the signal.
In turn, `COc1cc(O)c(C(=O)/C=C/c2ccccc2)c(OC)c1` [FLAVOKAWAIN B] showed an IC50 of 3.3 µM.

As for `O=C(/C=C/c1ccccc1)c1ccc(F)cc1`, the half-inhibitory concentration (IC50) is more than 20 µM.

For the molecule `O=C(/C=C/c1ccccc1O)c1ccccc1`, the half-maximal inhibitory concentration (IC50) was more than 20 µM.

`COc1cc(O)c(C(=O)/C=C/c2ccc(Cl)cc2)c(OC)c1` showed an IC50 of more than 20 µM.

Regarding `COc1cc(O)c(C(=O)/C=C/c2ccc(O)cc2)c(OC)c1` [FLAVOKAWAIN C], it took 3.1 µM to reach half-maximal inhibition (IC50).

The molecule `COc1cc(O)c(C(=O)/C=C/c2cccc(Br)c2)c(OC)c1` gave a concentration for half-maximal inhibition (IC50) of 2.2 µM. This IC50 and that of the molecule before are within 1.5-fold of each other.

`Cc1ccc(C(=O)/C=C/c2ccccc2)cc1` showed a half-maximal inhibitory concentration (IC50) of more than 20 µM.

As to `COc1cc(O)c(C(=O)/C=C/c2ccccc2Br)c(OC)c1`, the midpoint of inhibition, the IC50, lay at 11.6 µM.

With `COc1cc(O)c(C(=O)/C=C/c2ccccc2C)c(OC)c1`, it took 9.9 µM to reach half-maximal inhibition (IC50).

As for `CC(C)=CCc1c(O)cc(C(=O)[C@H]2[C@@H](c3c(O)ccc(C(=O)/C=C/c4ccc(O)cc4)c3O)C=C(C)C[C@@H]2c2ccc(O)cc2)cc1O` [KUWANON V], the IC50 amounted to 8.3 µM.

Consider `COc1cc(O)c(C(=O)/C=C/c2ccc(F)cc2)c(OC)c1`, for which the IC50 was more than 20 µM.

As to `CC(C)=CCc1c(O)cc(C(=O)[C@H]2[C@@H](c3c(O)ccc(C(=O)/C=C/c4ccc(O)cc4)c3O)C=C(C)C[C@@H]2c2ccc(O)cc2O)cc1O` [KUWANON R], the midpoint of inhibition, the IC50, lay at 3.2 µM.

Consider `COc1ccc(/C=C/C(=O)c2c(O)cc(OC)cc2OC)cc1` [FLAVOKAWAIN A], for which inhibition was half-maximal at 11 µM (IC50).

Molecule `O=C(/C=C/c1ccccc1)c1ccc(C(F)(F)F)cc1` gave a 50% inhibitory concentration (IC50) of more than 20 µM.

In turn, `CC(C)=CCc1c(O)cc(C(=O)[C@H]2[C@@H](c3c(O)ccc(C(=O)/C=C/c4ccc(O)cc4O)c3O)C=C(C)C[C@@H]2c2ccc(O)cc2O)cc1O` [KUWANON J] came in with an IC50 of 4.1 µM.

For `O=C(/C=C/c1ccc(O)cc1)c1ccccc1` [4-HYDROXYCHALCONE], the IC50 is more than 20 µM.

For the molecule `O=C(/C=C/c1ccccc1)c1ccc(F)c(F)c1`, the 50% inhibitory concentration (IC50) was more than 20 µM.

As to `O=C(/C=C/c1ccc(O)c(O)c1)c1ccc(O)cc1O` [BUTEIN], the IC50 was more than 20 µM.

`COc1cc(O)c(C(=O)/C=C/c2cccc(C)c2)c(OC)c1` displayed an IC50 of 3.6 µM. This counts as single-digit micromolar.

Take `COc1cc(O)c(C(=O)/C(C)=C/c2ccccc2)c(OC)c1`: the 50% inhibitory concentration (IC50) is more than 20 µM.

In turn, `CCCOc1ccc(/C=C/C(=O)c2c(O)cc(OC)cc2OC)cc1` returned a concentration for half-maximal inhibition (IC50) of 12 µM.

In turn, `COc1cc(/C=C/C(=O)CC(=O)/C=C/c2ccc(O)c(OC)c2)ccc1O` [CURCUMIN] registered a half-inhibitory concentration (IC50) of 9.6 µM. The IC50 values of the last two molecules are within 1.5-fold of each other.
